Measured values reported in patent US20120034193A1, “TREATMENT OF NEUROTROPHIC FACTOR MEDIATED DISORDERS” (priority 2009, published 2012).

How the values were obtained:
[1] = molecular target: 5-Hydroxytryptamine, 5-HT2B (Homo sapiens, UniProt P41595); test: Binding assay; conditions: smilagenin 1 μM
Protocol: (§1) The receptor binding was investigated using the following method: Sarsasapogenin was incubated with tissue or cell homogenate that expressed the receptor of interest and a known concentration a radiolabelled compound with affinity for the receptor of interest. After the incubation period the non-bound radiolabelled compound was removed and the amount of specific binding was quantified. The amount of specific binding in the presence and absence of sarsasapogenin were compared and the percent inhibition of the binding of the radiolabelled compound by sarsasapogenin was calculated. The source of the receptor, the incubation conditions, the radiolabelled compound used varied depending on each specific assay.
(§2) Using the same methods as described above, the binding of smilagenin (1 μM) to the receptors listed in Table 2 below, and the effect of smilagenin on the activity of the enzymes listed in Table 2 below, were investigated.

Anaphylatoxin C5a = Anaphylatoxin C5a (Homo sapiens, UniProt P21730); test: Binding assay; conditions: smilagenin 1 μM
Protocol: as §1, §2

Interleukin IL-6 = Interleukin IL-6 (Homo sapiens, UniProt P08887); test: Binding assay; conditions: smilagenin 1 μM
Protocol: as §1, §2

Muscarinic M1 [2] = molecular target: T1, Muscarinic M1 (Homo sapiens, UniProt P11229); test: Binding assay; conditions: smilagenin 1 μM
T1 construct: host or cells: tissue or cell homogenate, not specified
Protocol: as §1, §2

Opiate κ (OP2, KOP) = Opiate κ (OP2, KOP) (Homo sapiens, UniProt P41145); test: Binding assay; conditions: smilagenin 1 μM
Protocol: as §1, §2

[3] = molecular target: Nicotinic Acetylcholine α1, Bungarotoxin (Homo sapiens, UniProt P02708+P07510+Q07001); test: Binding assay; conditions: smilagenin 1 μM
Transporter, Monoamine = test: Binding assay; design: species or system Rabbit; conditions: smilagenin 1 μM
Protocol: as §1, §2

BDNF mRNA = BDNF mRNA in rat cortical neurones pre-incubated 48 h then exposed to β-amyloid; type: cell-based; conditions: 10 μM pre-incubation 48 h
Protocol: Rat cortical neurones were cultured by modification of a method previously described (Eckenstein and Sofroniew, Journal of Neuroscience, 1983, 3, pp. 2286-2291). On day 8, the culture medium was changed to a medium containing vehicle (DMSO, 0.5%) or smilagenin (10 μM). On day 10, rat primary cortical neurones were exposed to β-amyloid (10 μg/ml) for up to 48 h at 37° C. and the level of BDNF mRNA in the cortical neurones was assessed by rt RT-PCR over the following 48 h.

BDNF [4] = test: Striatal BDNF in MPTP-lesioned mice (ELISA); type: in vivo, C57b1/6 RJ mice; conditions: smilagenin 10 mg/kg/day oral, 60 days, striatum
Protocol: Seven-week old male C57b1/6 RJ mice (C57 mice) received daily injections 1-methyl-4-phenyl-1,2,3,6-tetrahydropyridine (MPTP, 25 mg/kg/day, i.p., for 5 consecutive days) and oral administration of smilagenin (10 mg/kg/day) or vehicle (hydroxylpropylmethylcellulose, HPMC 0.5% w/v containing tween-80 0.2% v/v) for 60 days after which time their brains were removed for quantification of striatal levels of GDNF and BDNF using an ELISA and of dopamine transporter (DAT) levels using [I^125]-RTI binding. DAT is a marker for neuronal damage to dopaminergic neurones.

GDNF = test: Unbound GDNF in the putamen of MPTP-lesioned macaques; type: in vivo, Macaca fascicularis; conditions: smilagenin 20 mg/kg/day p.o., 18 weeks; control 9.52, MPTP 15.33
Protocol: (§3) Nineteen female cynomolgus monkeys (Macaca fascicularis, 3.0-4.5 kg, 4-6 years old) were acclimatised to the experimental setting and procedures for 3 months and baseline behaviour was assessed in all animals. Fourteen female macaques received MPTP (0.2 mg/kg/day, s.c.) until marked, stable, parkinsonian symptoms developed. Animals (n=7/group) were randomly assigned to two groups; smilagenin (20 mg/kg/day, p.o.) or vehicle control (HPMC, 0.5% w/v containing Tween 80, 0.2% v/v).
(§4) Assessments of parkinsonian disability were made after MPTP administration and following 18 weeks of smilagenin or vehicle administration. Parkinsonian disability was evaluated by post hoc analysis of DVD-recordings by a neurologist blinded to the treatment. At the end of the study the brains were removed and the levels of unbound GDNF and BDNF in the putamen were measured using Multiplex ELISA/Aushon assays. The MPTP treated macaques used in this experiment thus provide an accepted model for Parkinson's disease and similar motor-sensory neurodegenerative conditions.

BDNF [5] = test: Unbound BDNF in the putamen of MPTP-lesioned macaques; type: in vivo, Macaca fascicularis; conditions: smilagenin 20 mg/kg/day p.o., 18 weeks; control 257.58, MPTP 388.73
Protocol: as §3, §4

Acetyl CoA synthetase = test: Enzyme activity assay; type: biochemical, Yeast; conditions: sarsasapogenin 100 μM
Protocol: The enzyme activity modulation was investigated using the following method: Sarsasapogenin was incubated with each enzyme plus a specific substrate for each enzyme. After the incubation period the reaction was stopped and the reduction of the specific substrate or the increase in a specific product in the absence and presence of sarsasapogenin was measured and the percent inhibition of the reaction in the presence of sarsasapogenin was calculated. The amount of enzyme used, the incubation conditions, the substrate used and the method of quantification varied depending on each specific assay.

Dopamine D1 = molecular target: T2, Dopamine D1 (Homo sapiens, UniProt P21728); test: Receptor binding assay; conditions: sarsasapogenin 10 μM
T2 construct: host or cells: tissue or cell homogenate, not specified
Protocol: as §1

Glucocorticoid = molecular target: T3, Glucocorticoid (Homo sapiens, UniProt P04150); test: Receptor binding assay; conditions: sarsasapogenin 10 μM
T3 construct: host or cells: tissue or cell homogenate, not specified
Protocol: as §1

Muscarinic M1 [6] = molecular target: T1, Muscarinic M1; test: Receptor binding assay; conditions: sarsasapogenin 10 μM
Protocol: as §1

Muscarinic M2 = molecular target: T4, Muscarinic M2 (Homo sapiens, UniProt P08172); test: Receptor binding assay; conditions: sarsasapogenin 10 μM
T4 construct: host or cells: tissue or cell homogenate, not specified
Protocol: as §1

Muscarinic M3 = molecular target: T5, Muscarinic M3 (Homo sapiens, UniProt P20309); test: Receptor binding assay; conditions: sarsasapogenin 10 μM
T5 construct: host or cells: tissue or cell homogenate, not specified
Protocol: as §1

Muscarinic M4 = molecular target: T6, Muscarinic M4 (Homo sapiens, UniProt P08173); test: Receptor binding assay; conditions: sarsasapogenin 10 μM
T6 construct: host or cells: tissue or cell homogenate, not specified
Protocol: as §1

Muscarinic M5 = molecular target: T7, Muscarinic M5 (Homo sapiens, UniProt P08912); test: Receptor binding assay; conditions: sarsasapogenin 10 μM
T7 construct: host or cells: tissue or cell homogenate, not specified
Protocol: as §1

Testosterone = Testosterone (Rattus norvegicus, UniProt P15207); test: Receptor binding assay; conditions: sarsasapogenin 10 μM
Protocol: as §1

[7] = Long term oral toxicity study, rats; type: in vivo; conditions: high doses, up to 26 week in rats

T1 sequence (P11229 whole entry): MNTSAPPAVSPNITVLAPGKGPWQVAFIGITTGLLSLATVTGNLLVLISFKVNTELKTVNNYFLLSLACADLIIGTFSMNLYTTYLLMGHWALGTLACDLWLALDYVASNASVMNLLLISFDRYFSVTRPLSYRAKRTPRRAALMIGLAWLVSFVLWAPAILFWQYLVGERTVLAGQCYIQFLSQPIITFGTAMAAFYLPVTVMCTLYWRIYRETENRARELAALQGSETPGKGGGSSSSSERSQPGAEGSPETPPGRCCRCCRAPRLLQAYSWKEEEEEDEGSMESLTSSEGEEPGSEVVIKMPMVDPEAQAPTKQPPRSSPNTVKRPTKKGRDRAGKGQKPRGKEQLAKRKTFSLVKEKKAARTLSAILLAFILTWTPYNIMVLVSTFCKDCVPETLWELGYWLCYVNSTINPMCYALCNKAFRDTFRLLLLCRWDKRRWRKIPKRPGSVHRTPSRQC
Sequence of Opiate κ (OP2, KOP) (P41145 whole entry): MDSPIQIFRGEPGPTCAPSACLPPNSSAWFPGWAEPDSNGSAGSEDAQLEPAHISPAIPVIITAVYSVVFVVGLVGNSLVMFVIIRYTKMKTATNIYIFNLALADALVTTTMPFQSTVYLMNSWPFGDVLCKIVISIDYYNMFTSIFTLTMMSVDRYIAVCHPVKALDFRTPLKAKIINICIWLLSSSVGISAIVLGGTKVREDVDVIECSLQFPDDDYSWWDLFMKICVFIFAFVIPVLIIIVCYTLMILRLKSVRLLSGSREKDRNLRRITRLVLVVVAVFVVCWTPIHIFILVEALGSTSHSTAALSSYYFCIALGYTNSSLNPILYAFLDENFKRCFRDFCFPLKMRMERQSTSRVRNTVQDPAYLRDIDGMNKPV
T6 sequence (P08173 whole entry): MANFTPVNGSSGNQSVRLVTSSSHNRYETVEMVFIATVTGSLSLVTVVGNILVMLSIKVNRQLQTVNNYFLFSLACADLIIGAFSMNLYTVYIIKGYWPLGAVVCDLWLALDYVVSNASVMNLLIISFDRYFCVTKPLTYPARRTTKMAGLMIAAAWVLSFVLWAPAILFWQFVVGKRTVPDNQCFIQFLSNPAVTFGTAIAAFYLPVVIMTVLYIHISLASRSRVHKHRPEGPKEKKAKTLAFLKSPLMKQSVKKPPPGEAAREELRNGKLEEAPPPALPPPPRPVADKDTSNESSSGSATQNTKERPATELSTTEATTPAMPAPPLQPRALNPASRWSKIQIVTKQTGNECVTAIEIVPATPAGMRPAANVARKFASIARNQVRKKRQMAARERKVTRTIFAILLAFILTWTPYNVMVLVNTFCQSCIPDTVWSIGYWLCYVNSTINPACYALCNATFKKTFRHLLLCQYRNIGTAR
T7 sequence (P08912 whole entry): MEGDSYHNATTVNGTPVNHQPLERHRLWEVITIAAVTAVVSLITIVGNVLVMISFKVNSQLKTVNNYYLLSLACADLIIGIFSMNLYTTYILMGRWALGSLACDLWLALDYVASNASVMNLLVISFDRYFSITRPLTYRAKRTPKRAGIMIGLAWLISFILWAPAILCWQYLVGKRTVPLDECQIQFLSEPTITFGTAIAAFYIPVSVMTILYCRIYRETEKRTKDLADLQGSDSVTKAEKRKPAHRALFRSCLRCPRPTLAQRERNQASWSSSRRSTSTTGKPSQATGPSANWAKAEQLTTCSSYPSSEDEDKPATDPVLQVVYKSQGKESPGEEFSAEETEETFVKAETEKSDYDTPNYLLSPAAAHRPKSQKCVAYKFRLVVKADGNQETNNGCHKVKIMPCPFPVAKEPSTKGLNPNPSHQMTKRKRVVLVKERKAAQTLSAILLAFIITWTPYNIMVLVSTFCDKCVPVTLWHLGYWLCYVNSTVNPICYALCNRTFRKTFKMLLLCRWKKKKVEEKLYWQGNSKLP
T4 sequence (P08172 whole entry): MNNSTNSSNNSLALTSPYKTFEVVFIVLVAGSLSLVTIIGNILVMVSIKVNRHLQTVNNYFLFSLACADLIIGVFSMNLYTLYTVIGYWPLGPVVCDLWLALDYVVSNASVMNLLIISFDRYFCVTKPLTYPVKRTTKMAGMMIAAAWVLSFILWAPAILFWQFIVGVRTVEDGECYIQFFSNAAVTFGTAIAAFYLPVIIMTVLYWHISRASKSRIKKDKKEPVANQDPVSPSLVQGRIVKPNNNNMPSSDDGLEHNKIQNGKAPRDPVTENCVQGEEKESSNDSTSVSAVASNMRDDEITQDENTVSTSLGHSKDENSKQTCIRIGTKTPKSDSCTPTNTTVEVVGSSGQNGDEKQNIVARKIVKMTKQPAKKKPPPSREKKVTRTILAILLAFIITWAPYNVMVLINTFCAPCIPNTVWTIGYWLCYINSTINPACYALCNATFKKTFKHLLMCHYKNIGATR
T2 sequence (P21728 whole entry): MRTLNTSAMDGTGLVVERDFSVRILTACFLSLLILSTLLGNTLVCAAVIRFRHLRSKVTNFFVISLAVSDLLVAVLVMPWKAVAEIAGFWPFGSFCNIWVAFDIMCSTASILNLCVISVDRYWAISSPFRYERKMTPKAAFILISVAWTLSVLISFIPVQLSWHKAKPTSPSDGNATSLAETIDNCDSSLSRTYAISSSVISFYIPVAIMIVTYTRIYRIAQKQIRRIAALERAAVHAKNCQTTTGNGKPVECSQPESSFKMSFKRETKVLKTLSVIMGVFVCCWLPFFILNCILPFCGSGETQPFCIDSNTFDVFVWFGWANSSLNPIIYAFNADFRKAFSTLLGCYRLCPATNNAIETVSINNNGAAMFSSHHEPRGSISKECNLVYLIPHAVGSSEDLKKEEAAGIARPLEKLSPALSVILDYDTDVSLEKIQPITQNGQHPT
T5 sequence (P20309 whole entry): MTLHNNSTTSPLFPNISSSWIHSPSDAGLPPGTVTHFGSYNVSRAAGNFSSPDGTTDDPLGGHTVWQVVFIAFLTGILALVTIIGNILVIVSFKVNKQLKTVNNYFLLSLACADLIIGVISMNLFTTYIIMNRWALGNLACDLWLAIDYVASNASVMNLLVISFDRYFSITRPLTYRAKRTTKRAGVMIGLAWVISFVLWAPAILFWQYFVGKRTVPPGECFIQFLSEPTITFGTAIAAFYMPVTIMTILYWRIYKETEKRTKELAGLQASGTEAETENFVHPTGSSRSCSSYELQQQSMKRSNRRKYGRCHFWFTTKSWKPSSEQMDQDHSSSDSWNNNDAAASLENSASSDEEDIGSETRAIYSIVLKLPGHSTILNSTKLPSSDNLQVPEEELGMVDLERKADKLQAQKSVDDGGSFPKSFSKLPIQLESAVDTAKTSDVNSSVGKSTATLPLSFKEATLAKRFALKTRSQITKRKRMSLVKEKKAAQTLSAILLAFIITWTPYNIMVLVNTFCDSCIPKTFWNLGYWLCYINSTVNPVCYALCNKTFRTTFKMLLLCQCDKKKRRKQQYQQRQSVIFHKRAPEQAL
T3 sequence (P04150 whole entry): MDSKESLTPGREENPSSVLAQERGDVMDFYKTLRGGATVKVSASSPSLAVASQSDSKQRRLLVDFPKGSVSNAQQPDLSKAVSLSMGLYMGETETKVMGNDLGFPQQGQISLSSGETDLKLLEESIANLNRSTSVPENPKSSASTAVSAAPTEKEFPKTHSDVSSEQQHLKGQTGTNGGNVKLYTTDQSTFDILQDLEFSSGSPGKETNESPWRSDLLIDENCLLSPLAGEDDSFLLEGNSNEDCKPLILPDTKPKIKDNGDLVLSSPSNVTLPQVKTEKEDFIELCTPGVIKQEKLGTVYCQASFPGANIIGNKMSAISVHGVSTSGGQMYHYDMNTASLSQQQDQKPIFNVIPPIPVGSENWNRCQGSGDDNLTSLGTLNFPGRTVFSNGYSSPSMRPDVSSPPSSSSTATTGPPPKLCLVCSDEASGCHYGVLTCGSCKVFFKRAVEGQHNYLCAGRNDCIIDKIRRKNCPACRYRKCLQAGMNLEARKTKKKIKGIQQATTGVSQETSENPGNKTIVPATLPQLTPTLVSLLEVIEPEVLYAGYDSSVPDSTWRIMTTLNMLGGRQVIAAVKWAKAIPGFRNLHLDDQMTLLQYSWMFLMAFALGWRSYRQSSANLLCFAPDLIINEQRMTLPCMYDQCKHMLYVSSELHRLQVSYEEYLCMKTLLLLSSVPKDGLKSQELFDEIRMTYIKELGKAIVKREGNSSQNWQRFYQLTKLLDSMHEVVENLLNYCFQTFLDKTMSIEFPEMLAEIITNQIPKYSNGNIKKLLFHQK
Sequence of Anaphylatoxin C5a (P21730 whole entry): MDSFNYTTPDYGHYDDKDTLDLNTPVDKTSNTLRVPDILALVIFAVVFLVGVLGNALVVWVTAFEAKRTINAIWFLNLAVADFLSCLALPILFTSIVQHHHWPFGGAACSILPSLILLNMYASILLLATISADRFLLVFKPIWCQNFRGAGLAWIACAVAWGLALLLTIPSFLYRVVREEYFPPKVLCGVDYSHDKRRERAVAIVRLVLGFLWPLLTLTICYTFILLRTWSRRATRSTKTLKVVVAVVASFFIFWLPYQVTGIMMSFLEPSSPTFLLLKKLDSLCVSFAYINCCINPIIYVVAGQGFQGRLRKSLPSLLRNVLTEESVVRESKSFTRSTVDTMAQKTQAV
Sequence of 5-Hydroxytryptamine, 5-HT2B (P41595 whole entry): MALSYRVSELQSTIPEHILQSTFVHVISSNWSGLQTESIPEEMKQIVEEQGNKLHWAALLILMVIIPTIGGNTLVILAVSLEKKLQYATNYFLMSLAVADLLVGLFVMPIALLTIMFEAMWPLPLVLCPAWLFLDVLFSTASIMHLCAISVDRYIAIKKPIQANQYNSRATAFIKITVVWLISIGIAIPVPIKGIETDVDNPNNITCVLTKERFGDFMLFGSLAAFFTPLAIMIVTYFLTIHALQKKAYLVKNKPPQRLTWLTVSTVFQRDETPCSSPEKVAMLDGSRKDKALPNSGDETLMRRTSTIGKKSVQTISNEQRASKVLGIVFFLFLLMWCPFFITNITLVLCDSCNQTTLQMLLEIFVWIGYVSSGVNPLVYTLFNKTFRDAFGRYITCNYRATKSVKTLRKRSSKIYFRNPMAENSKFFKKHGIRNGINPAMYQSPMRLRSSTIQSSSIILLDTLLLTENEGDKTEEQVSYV

For `C[C@@H]1CC[C@@]2(OC1)O[C@H]1C[C@H]3[C@@H]4CC[C@@H]5C[C@@H](O)CC[C@]5(C)[C@H]4CC[C@]3(C)[C@H]1[C@@H]2C` [Smilagenin, smilagenin], the “Effect (%)” value [1] was “NS (NS = No significant response. Significance was taken as ≧30% stimulation or inhibition)”, the “Effect (%)” value (Anaphylatoxin C5a) was “NS (NS = No significant response. Significance was taken as ≧30% stimulation or inhibition)” and the “Effect (%)” value (Interleukin IL-6) was “NS (NS = No significant response. Significance was taken as ≧30% stimulation or inhibition)”. The “Effect (%)” value (Muscarinic M1 [2]) was “NS (NS = No significant response. Significance was taken as ≧30% stimulation or inhibition)”, the “Effect (%)” value (Opiate κ (OP2, KOP)) was “NS (NS = No significant response. Significance was taken as ≧30% stimulation or inhibition)” and the “Effect (%)” value [3] was “NS (NS = No significant response. Significance was taken as ≧30% stimulation or inhibition)”. The “Effect (%)” value (Transporter, Monoamine) was “NS (NS = No significant response. Significance was taken as ≧30% stimulation or inhibition)”, the “Relative amount of BDNF mRNA (% of control at 0 h)” value (BDNF mRNA; β-amyloid 10 μg/ml exposure 6 h) was 108.0 ± 5.2 % of control at 0 h and the “Relative amount of BDNF mRNA (% of control at 0 h)” value (BDNF mRNA; β-amyloid 10 μg/ml exposure 24 h) was 321.5 ± 54.2 % of control at 0 h. For the same compound, the “Relative amount of BDNF mRNA (% of control at 0 h)” value (BDNF mRNA; β-amyloid 10 μg/ml exposure 48 h) was 334.6 ± 48.1 % of control at 0 h, the “BDNF (% increase above MPTP mice)” value (BDNF [4]) was 164 ± 53 % and the “BDNF (pg/mg tissue)” value (BDNF [4]) was 46.91 ± 9.97 pg/mg tissue. The “Mean ± s.e.mean of unbound GDNF level in the putamen (pg/mg protein)” value (GDNF) was 5.09 ± 1.35 pg/mg protein and the “Mean ± s.e.mean of unbound BDNF level in the putamen (pg/mg protein)” value (BDNF [5]) was 208.27 ± 36.58 pg/mg protein.

With `C[C@H]1CC[C@@]2(OC1)O[C@H]1C[C@H]3[C@@H]4CC[C@@H]5C[C@@H](O)CC[C@]5(C)[C@H]4CC[C@]3(C)[C@H]1[C@@H]2C` [Sarsasapogenin, sarsasapogenin] the “Effect (%)” value (Acetyl CoA synthetase) was “NS (NS = No significant response. Significance was taken as ≧30% stimulation or inhibition)”, the “Effect (%)” value (Dopamine D1) was “NS (NS = No significant response. Significance was taken as ≧30% stimulation or inhibition)” and the “Effect (%)” value (Glucocorticoid) was “NS (NS = No significant response. Significance was taken as ≧30% stimulation or inhibition)”. The “Effect (%)” value (Muscarinic M1 [6]) was “NS (NS = No significant response. Significance was taken as ≧30% stimulation or inhibition)”, the “Effect (%)” value (Muscarinic M2) was “NS (NS = No significant response. Significance was taken as ≧30% stimulation or inhibition)” and the “Effect (%)” value (Muscarinic M3) was “NS (NS = No significant response. Significance was taken as ≧30% stimulation or inhibition)”. For the same compound, the “Effect (%)” value (Muscarinic M4) was “NS (NS = No significant response. Significance was taken as ≧30% stimulation or inhibition)”, the “Effect (%)” value (Muscarinic M5) was “NS (NS = No significant response. Significance was taken as ≧30% stimulation or inhibition)” and the “Effect (%)” value (Testosterone) was “NS (NS = No significant response. Significance was taken as ≧30% stimulation or inhibition)”. The Long term toxicity [7] was “without showing any signs of toxicity or adverse events”.
